18 compounds from patent publication US11945784B2, “IRE1 small molecule inhibitors” (Cornell University, priority 2018, dated 2024) can be followed below.

One experiment relates to 293T cells. The experiment is described as follows: Growth assay (cytotoxicity). To be noted: Homo sapiens, HEK-293T, 48 h, 2 day incubation, read-out: percentage growth at 5 uM. The format is cell-based. The method, then:
A growth assay is performed to evaluate the compounds disclosed in Table 1 for cytotoxicity. Briefly, 5,000,000 293T cells are resuspended in 18 mL of cDMEM for a final concentration of 277,777 cells/mL. 180 μL (50,000 cells) cDMEM was seeded per well in 96 well flat bottom plate, with some wells left unfilled. In a 96 well plate, […] cDMEM and 1 uL of any one of the compounds disclosed herein. 133.3 uL cDMEM is added to wells 1, 2, 3, 5, 6, 7, 9, 10, and 11 of row A. Wells are serially diluted with 66.7 uL (highest concentration on right, lowest on left) to the total concentrations shown below. 20 uL of each dilution is transferred in duplicate to the cells plated in the 96-well plate. The plate is then placed in a humidified chamber for a 2 day incubation, and then photographed (media is more yellow in wells with potent cell growth). Absorbance is then measured at […] (lower for more acidic media) and […] (higher for more acidic media).

Experiment [1] concerns the target T1, IRE1α (Homo sapiens (Human), UniProt O75460). The experiment is described as follows: In vitro FRET assay. The format is biochemical. To be noted: XBP1 RNA probe. As to the method:
In vitro FRET assay was performed to evaluate the ability of select compounds to inhibit IRE1, the results of which are summarized in Table 3. To perform the in vitro FRET assay, 1× complete assay buffer (CAB; […], 50 mM sodium citrate pH 7.15, 1 mM magnesium acetate, 0.02% tween 20) was used to dilute SignalChem IRE1α protein to a final concentration of 2 nM. Selected compounds were serially diluted with DMSO in a non-binding black 384-well plate for a total of 15 ul in each well. 2 ul of the serially diluted compound or DMSO control were then added to new wells containing 98 ul of 1×CAB, for a total volume of 100 ul, 10 ul of which were then transferred to wells of a new plate. 5 ul of the diluted IRE1α was then added to each well. 5 ul of a […] XBP1 RNA probe was then added to each well. Fluorescence was then read over 30 minutes in kinetic mode (485/515 nm).
Two RNA probes were used, XBP1 wildtype (SEQ ID NO: 2) which is able to be spliced by active IRE1α or XBP1 mutant (SEQ ID NO: 3) which is unable to be spliced. Each probe contained a 5′ 6-FAM modification and a 3′ IOWA Black FQ modification.
A second FRET assay was performed to assess ATP-mediated inhibition. In this case, compounds and IRE1α were prepared and combined as discussed above, with the addition of ATP up to 1 mM final concentration. This mixture was incubated at room temperature for 60 minutes and then 5 ul of 400 nM XBP1 wildtype or mutant RNA probe was added. Plates were then read over 30 minutes in kinetic mode (485/515 nm) and rate of fluorescence increase calculated for different compound dilutions to determine IC50 (Table 3).

Experiment [2] addresses T1, IRE1α. As to the kind of experiment: In vitro luciferase assay (IRE1α Endoribonuclease Nanoluciferase Assay). The format is cell-based. To be noted: 293T cells, XBP1 luciferase reporter. As to the method:
Compounds disclosed herein were assessed for disruption of IRE-1 signaling using a IRE1α Endoribonuclease Nanoluciferase Assay. Briefly, 2.5×10^6 293T cells were seeded in a 10 cm^2 tissue culture plate. About 24 hours later, the cells were transfected with Effectene. In a 15 mL Tube, the following was added: 2 μg XBP1 luciferase reporter plasmid (PGK-Luc2-P2A-XBP1u-Nanoluciferase-PEST); 300 μl EC buffer; and 16 μl Enhancer, followed by incubation at room temp for 5 minutes. Next, 60 μl Effectene (Qiagen 301427) was added, followed by incubation at room temperature for 10 minutes. 2.6 mL cDMEM media was added. Old media was aspirated from the cells, followed by addition of 7 mL fresh media. Full transfection mixture was added dropwise to cells. Cells were incubated for 6 hours, followed by trypsinization, centrifugation and resuspension in 11 mL media. 100 uL of cells were plated per a well in a 96 well plate. A day later, ER stressors of choice+/−inhibitors were added. To harvest, media was aspirated from cells completely, then 50 uL 1× passive lysis buffer (Promega: E1941) was added per well and put on shaker (300 rpm) for 30 minutes at room temperature. Cells were centrifuged, and 15 uL sample per well was added to a new, opaque white 384 well plate (Corning 3570). 15 uL OneGlo (nanoluciferase kit, Promega N1630) was added. Plates were spun down, placed on shaker (300 rpm) for 10 minutes. Plates were read on luminometer, 1000 ms integration time per well. 15 uL Stop and Glo (nanoluciferase kit) was added. Plates were spun down, placed on shaker (300 rpm) for 10 minutes. Plates were read on luminometer, 1000 ms second integration time per well. Recordings are provided below in Table 4

T1 sequence (O75460 19-977): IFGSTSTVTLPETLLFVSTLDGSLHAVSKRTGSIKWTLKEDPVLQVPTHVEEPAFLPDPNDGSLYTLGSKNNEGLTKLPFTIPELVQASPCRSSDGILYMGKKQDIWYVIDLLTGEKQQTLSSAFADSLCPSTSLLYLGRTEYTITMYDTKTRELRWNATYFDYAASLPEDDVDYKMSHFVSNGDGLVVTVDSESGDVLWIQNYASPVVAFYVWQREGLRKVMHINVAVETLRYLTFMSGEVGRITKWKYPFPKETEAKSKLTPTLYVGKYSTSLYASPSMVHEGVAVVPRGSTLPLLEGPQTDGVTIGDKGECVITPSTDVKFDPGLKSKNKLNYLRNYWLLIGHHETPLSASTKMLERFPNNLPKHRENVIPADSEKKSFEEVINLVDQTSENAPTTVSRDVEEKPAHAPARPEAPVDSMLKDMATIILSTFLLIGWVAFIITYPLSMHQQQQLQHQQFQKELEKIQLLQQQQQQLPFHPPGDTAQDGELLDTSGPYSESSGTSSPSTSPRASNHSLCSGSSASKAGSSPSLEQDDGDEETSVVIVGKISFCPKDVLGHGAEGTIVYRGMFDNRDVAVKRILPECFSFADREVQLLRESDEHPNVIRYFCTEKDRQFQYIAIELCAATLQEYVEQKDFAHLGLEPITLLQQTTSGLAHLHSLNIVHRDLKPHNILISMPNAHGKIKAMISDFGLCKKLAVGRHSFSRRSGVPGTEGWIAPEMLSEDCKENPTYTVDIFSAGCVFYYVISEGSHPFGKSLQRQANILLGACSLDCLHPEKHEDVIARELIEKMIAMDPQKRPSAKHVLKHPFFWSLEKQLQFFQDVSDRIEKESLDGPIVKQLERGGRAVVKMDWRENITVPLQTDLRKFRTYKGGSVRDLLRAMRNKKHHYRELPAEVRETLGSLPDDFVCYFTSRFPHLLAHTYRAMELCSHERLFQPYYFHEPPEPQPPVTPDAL

As to `NC1CCC(Nc2ncc(CCc3ccc(NS(=O)(=O)c4ccccc4Cl)cc3)cn2)CC1` (stereo not shown) [Compound 1, N-(4-(2-(2-(((1r,4r)-4-aminocyclohexyl)amino)pyrimidin-5-yl)ethyl)phenyl)-2-chlorobenzenesulfonamide], the viability at 5 µM in the experiment on 293T cells was over 75%. The 50% inhibitory concentration (IC50) against IRE1α [1] lay in the range of 1 to 5 nM. The same compound yielded an EC50 on IRE1α [2] of 50 to 100 nM.

Take `NC1CCC(Nc2ncc(/C=C/c3ccc(NS(=O)(=O)c4ccccc4Cl)nn3)cn2)CC1` (stereo not shown) [Compound 2, N-(6-((E)-2-(2-(((1r,4r)-4-aminocyclohexyl)amino)pyrimidin-5-yl)vinyl)pyridazin-3-yl)-2-chlorobenzenesulfonamide]: the viability at 5 µM with 293T cells was over 75%. This compound also gave an EC50 at IRE1α [2] of 50 to 100 nM.

`NC1CCC(Nc2ncc(CCc3ccc(NS(=O)(=O)c4ccccc4Cl)c(F)c3)cn2)CC1` (stereo not shown) [Compound 8, N-(4-(2-(2-(((1r,4r)-4-aminocyclohexyl)amino)pyrimidin-5-yl)ethyl)-2-fluorophenyl)-2-chlorobenzenesulfonamide]: the viability at 5 µM with 293T cells is over 75%. Also, the IC50 at IRE1α [1] was at most 1 nM. This compound also displayed an EC50 on IRE1α [2] of 100 to 10000 nM.

For the compound `COc1nc(NS(=O)(=O)c2ccccc2Cl)ccc1CCc1cnc(NC2CCC(N)CC2)nc1` (stereo not shown) [Compound 10, N-(5-(2-(2-(((1r,4r)-4-aminocyclohexyl)amino)pyrimidin-5-yl)ethyl)-6-methoxypyridin-2-yl)-2-chlorobenzenesulfonamide], the viability at 5 µM in the experiment with 293T cells is over 75%. The same compound came in with an IC50 against IRE1α [1] of at most 1 nM.

As for `COc1cc(NS(=O)(=O)c2ccccc2Cl)ccc1/C=C/c1cnc(NC2CCC(N)CC2)nc1` (stereo not shown) [Compound 14, N-(4-((E)-2-(2-(((1r,4r)-4-aminocyclohexyl)amino)pyrimidin-5-yl)vinyl)-3-methoxyphenyl)-2-chlorobenzenesulfonamide], in the experiment with 293T cells, the viability at 5 µM was over 35%. The IC50 against IRE1α [1] is at most 1 nM. The EC50 at IRE1α [2] was at most 5 nM.

Take `COc1nc(NS(=O)(=O)c2ccccc2Cl)ccc1CCc1cnc(NC2CCC(N(C)C)CC2)nc1` (stereo not shown) [Compound 19, 2-chloro-N-(5-(2-(2-(((1r,4r)-4-(dimethylamino)cyclohexyl)amino)pyrimidin-5-yl)ethyl)-6-methoxypyridin-2-yl)benzenesulfonamide]: in the experiment on 293T cells, the viability at 5 µM was over 75%. Moreover, the IC50 on IRE1α [1] was at most 1 nM. At IRE1α [2], this compound returned an EC50 of 5 to 50 nM.

With `Cc1nc(NS(=O)(=O)c2ccccc2Cl)c(F)cc1CCc1cnc(NC2CCC(N(C)C)CC2)nc1` (stereo not shown) [Compound 24, 2-chloro-N-(5-(2-(2-(((1r,4r)-4-(dimethylamino)cyclohexyl)amino)pyrimidin-5-yl)ethyl)-3-fluoro-6-methylpyridin-2-yl)benzenesulfonamide], the viability at 5 µM in the experiment with 293T cells is over 75%. Besides, on IRE1α [1], the concentration for half-maximal inhibition (IC50) is 1 to 5 nM.

`CN(C)C1CCC(Nc2ncc(/C=C/c3ccc(NS(=O)(=O)c4ccccc4Cl)nc3)cn2)CC1` (stereo not shown) [Compound 36, 2-chloro-N-(5-((E)-2-(2-(((1r,4r)-4-(dimethylamino)cyclohexyl)amino)pyrimidin-5-yl)vinyl)pyridin-2-yl)benzenesulfonamide] returned an IC50 against IRE1α [1] of at most 1 nM. This compound yielded an EC50 at IRE1α [2] of at most 5 nM.

For the compound `CN(C)C1CCC(Nc2ncc(/C=C/c3cnc(NS(=O)(=O)c4ccccc4Cl)cn3)cn2)CC1` (stereo not shown) [Compound 37, 2-chloro-N-(5-((E)-2-(2-(((1r,4r)-4-(dimethylamino)cyclohexyl)amino)pyrimidin-5-yl)vinyl)pyrazin-2-yl)benzenesulfonamide], the IC50 on IRE1α [1] is at most 1 nM. Moreover, the EC50 on IRE1α [2] was in the range of 5 to 50 nM.

`Cc1nc(NS(=O)(=O)c2ccc(F)c(F)c2Cl)ccc1/C=C/c1cnc(NC2CCC(N(C)C)CC2)nc1` (stereo not shown) [Compound 38, 2-chloro-N-(5-((E)-2-(2-(((1r,4r)-4-(dimethylamino)cyclohexyl)amino)pyrimidin-5-yl)vinyl)-6-methylpyridin-2-yl)-3,4-difluorobenzenesulfonamide] had an IC50 at IRE1α [1] of at most 1 nM. The compound also displayed an EC50 on IRE1α [2] of 5 to 50 nM.

In the case of `CCc1nc(NS(=O)(=O)c2cnccc2Cl)ccc1/C=C/c1cnc(NC2CCC(N(C)C)CC2)nc1` (stereo not shown) [Compound 42, 4-chloro-N-(5-((E)-2-(2-(((1r,4r)-4-(dimethylamino)cyclohexyl)amino)pyrimidin-5-yl)vinyl)-6-ethylpyridin-2-yl)pyridine-3-sulfonamide], at IRE1α [1], the IC50 was at most 1 nM. Moreover, at IRE1α [2], the EC50 lay in the range of 5 to 50 nM.

With `CNC1CCC(Nc2ncc(C=Cc3ccc(NS(=O)(=O)c4ccccc4Cl)nc3C)cn2)CC1` (stereo not shown) [Compound 44, 2-chloro-N-(6-methyl-5-(2-(2-(((1r,4r)-4-(methylamino)cyclohexyl)amino)pyrimidin-5-yl)vinyl)pyridin-2-yl)benzenesulfonamide], on IRE1α [1], the IC50 is at most 1 nM. The compound also registered an EC50 on IRE1α [2] of 5 to 50 nM.

On IRE1α [1], `Cc1nc(NS(=O)(=O)c2ccccc2Cl)ccc1/C=C/c1cnc(NC2CCC(N)CC2)nc1` (stereo not shown) [Compound 46, N-(5-((E)-2-(2-(((1r,4r)-4-aminocyclohexyl)amino)pyrimidin-5-yl)vinyl)-6-methylpyridin-2-yl)-2-chlorobenzenesulfonamide] had an IC50 of at most 1 nM. The concentration for a half-maximal effect (EC50) on IRE1α [2] lay in the range of 5 to 50 nM.

For `CNC1CCC(Nc2ncc(/C=C/c3ccc(NS(=O)(=O)c4ccccc4Cl)nc3OC)cn2)CC1` (stereo not shown) [Compound 48, 2-chloro-N-(6-methoxy-5-((E)-2-(2-(((1r,4r)-4-(methylamino)cyclohexyl)amino)pyrimidin-5-yl)vinyl)pyridin-2-yl)benzenesulfonamide], on IRE1α [1], the IC50 is at most 1 nM. At IRE1α [2], this compound registered an EC50 of at most 5 nM.

For the compound `Cc1nc(NS(=O)(=O)c2ccccc2Cl)ccc1/C=C/c1cnc(NC23CCC(N)(CC2)CC3)nc1` [Compound 49, (E)-N-(5-(2-(2-((4-aminobicyclo[2.2.2]octan-1-yl)amino)pyrimidin-5-yl)vinyl)-6-methylpyridin-2-yl)-2-chlorobenzenesulfonamide], the IC50 on IRE1α [1] is at most 1 nM. The same compound came in with an EC50 on IRE1α [2] of 100 to 10000 nM.

Take `COc1nc(NS(=O)(=O)c2ccccc2Cl)c(F)cc1/C=C/c1cnc(NC2CCC(N(C)C)CC2)nc1` (stereo not shown) [Compound 50, 2-chloro-N-(5-((E)-2-(2-(((1r,4r)-4-(dimethylamino)cyclohexyl)amino)pyrimidin-5-yl)vinyl)-3-fluoro-6-methoxypyridin-2-yl)benzenesulfonamide]: the IC50 at IRE1α [1] was at most 1 nM. The EC50 on IRE1α [2] lay in the range of 5 to 50 nM.

Turning to `COc1nc(NS(=O)(=O)c2cccc(Cl)c2Cl)ccc1/C=C/c1cnc(NC2CCC(N(C)C)CC2)nc1` (stereo not shown) [Compound 51, 2,3-dichloro-N-(5-((E)-2-(2-(((1r,4r)-4-(dimethylamino)cyclohexyl)amino)pyrimidin-5-yl)vinyl)-6-methoxypyridin-2-yl)benzenesulfonamide], the IC50 on IRE1α [1] was at most 1 nM. On IRE1α [2], this compound showed an EC50 of at most 5 nM.

`COc1cc(NS(=O)(=O)c2ccccc2Cl)ccc1/C=C/c1cnc(NC2CCC(N(C)C)CC2)nc1` (stereo not shown) [Compound 55, 2-chloro-N-(4-((E)-2-(2-(((1r,4r)-4-(dimethylamino)cyclohexyl)amino)pyrimidin-5-yl)vinyl)-3-methoxyphenyl)benzenesulfonamide]: the IC50 on IRE1α [1] is at most 1 nM. Further, on IRE1α [2], the EC50 is at most 5 nM.
